Tests used:
[1] = target: B2 bradykinin receptor (Homo sapiens) (UniProt P30411); assay: Displacement of [3H]bradykinin from human recombinant Bradykinin B2 receptor at 10 uM incubated for 60 mins by radiometric based scintillation counter assay relative to control
Homo sapiens [2] = species on record: Homo sapiens; assay: Displacement of [125I]hCGRPalpha from calcitonin gene-related peptide (unknown origin) at 10 uM incubated for 90 mins by radiometric based scintillation counter assay relative to control
[3] = target: Tumor necrosis factor receptor superfamily member 1A (Homo sapiens) (UniProt P19438); assay: Displacement of [125I]TNF-alpha from human tumor necrosis factor-alpha at 10 uM incubated for 120 mins by radiometric based scintillation counter assay relative to control
Chain of Tumor necrosis factor receptor superfamily member 1A (Homo sapiens) (P19438 whole entry): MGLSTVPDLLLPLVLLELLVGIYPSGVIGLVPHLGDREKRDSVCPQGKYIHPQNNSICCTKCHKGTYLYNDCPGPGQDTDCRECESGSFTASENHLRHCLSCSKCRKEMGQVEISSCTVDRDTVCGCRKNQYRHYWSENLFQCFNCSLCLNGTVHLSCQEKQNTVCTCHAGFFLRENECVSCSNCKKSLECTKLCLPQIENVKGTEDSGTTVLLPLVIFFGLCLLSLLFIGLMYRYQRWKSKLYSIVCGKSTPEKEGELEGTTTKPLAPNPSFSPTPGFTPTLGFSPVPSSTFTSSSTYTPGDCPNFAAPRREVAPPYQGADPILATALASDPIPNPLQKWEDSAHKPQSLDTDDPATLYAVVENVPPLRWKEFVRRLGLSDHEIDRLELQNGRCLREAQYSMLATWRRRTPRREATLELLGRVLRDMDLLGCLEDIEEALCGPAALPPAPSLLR

[4] = target: Vasopressin V1a receptor (Homo sapiens) (UniProt P37288); assay: Displacement of [3H]AVP from human recombinant Vasopressin V1a receptor at 10 uM incubated for 60 mins by radiometric based scintillation counter assay relative to control
Chain of Vasopressin V1a receptor (Homo sapiens) (P37288 whole entry, looked up): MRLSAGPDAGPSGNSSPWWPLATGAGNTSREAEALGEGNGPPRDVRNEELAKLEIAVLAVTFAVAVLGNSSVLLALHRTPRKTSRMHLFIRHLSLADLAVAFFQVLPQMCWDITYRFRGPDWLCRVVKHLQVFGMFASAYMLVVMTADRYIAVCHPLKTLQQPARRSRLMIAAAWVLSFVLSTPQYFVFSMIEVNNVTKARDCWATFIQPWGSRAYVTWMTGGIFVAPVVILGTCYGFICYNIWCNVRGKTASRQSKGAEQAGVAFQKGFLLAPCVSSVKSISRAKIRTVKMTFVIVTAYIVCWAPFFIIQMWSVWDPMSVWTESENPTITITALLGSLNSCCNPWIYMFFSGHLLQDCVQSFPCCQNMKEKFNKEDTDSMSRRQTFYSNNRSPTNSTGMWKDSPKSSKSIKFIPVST

Homo sapiens [5] = species on record: Homo sapiens; assay: Displacement of [3H]Dofetilide from human recombinant voltage-dependent K+ channel at 10 uM incubated for 60 mins by radiometric based scintillation counter assay relative to control
Rattus norvegicus = species on record: Rattus norvegicus; assay: Displacement of [3H]batrachotoxinin from rat brain Voltage-gated Na+ channel (site 2) at 10 uM incubated for 60 mins by radiometric based scintillation counter assay relative to control; assay type: tissue-based
Endothelin-1 receptor = target: T1, Endothelin-1 receptor (Homo sapiens, UniProt P25101); assay: Antagonist activity at ETA receptor in endothelin-1 stimulated human Pericardial smooth muscle cell assessed as inhibition of […] in presence of myo-[3H] inositol by anion exchange chromatography; assay type: functional, cell-based
T1 sequence (P25101 whole entry): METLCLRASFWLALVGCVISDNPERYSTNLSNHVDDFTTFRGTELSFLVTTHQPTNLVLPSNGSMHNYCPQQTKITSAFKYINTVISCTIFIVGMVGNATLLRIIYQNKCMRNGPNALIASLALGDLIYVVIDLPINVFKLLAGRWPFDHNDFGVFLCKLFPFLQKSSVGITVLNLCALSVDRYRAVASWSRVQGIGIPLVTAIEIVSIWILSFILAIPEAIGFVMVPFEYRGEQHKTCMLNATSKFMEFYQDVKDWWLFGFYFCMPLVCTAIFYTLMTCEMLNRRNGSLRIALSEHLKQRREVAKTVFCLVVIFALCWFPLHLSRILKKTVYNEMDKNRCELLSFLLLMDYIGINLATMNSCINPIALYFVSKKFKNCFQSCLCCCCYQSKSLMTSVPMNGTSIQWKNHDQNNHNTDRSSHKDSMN

[6] = target: Endothelin receptor type B (Oryctolagus cuniculus, UniProt Q9N0W7); assay: Antagonist activity to ETB receptor in sarafotoxin-6c stimulated rabbit pulmonary artery assessed as induction of vessel ring contraction preincubated for 15 mins; assay type: functional, tissue-based; conditions: read-out: pA2 (converted)
Chain of Endothelin receptor type B (Q9N0W7 whole entry): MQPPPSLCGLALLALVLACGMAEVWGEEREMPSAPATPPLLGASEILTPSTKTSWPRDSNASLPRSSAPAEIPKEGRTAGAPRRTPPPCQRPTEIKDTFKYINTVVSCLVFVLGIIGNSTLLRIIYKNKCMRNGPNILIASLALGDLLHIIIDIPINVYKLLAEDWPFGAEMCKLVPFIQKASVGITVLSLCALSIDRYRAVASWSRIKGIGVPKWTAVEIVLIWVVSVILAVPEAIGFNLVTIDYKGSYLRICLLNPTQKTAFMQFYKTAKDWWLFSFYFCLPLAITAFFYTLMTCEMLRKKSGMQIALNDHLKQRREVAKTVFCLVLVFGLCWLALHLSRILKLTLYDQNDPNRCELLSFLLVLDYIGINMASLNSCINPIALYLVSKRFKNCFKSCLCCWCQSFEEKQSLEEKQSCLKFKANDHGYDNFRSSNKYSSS

[7] = Half life in Beagle dog at 5 mg/kg, po administered for 12 hrs by HPLC analysis; assay type: ADME, organism-based, Canis lupus familiaris; conditions: in vivo
[8] = Oral bioavailability in cynomolgus monkey at 5 mg/kg administered for 12 hrs by HPLC analysis; assay type: ADME, organism-based, Macaca fascicularis; conditions: in vivo

Chain of B2 bradykinin receptor (Homo sapiens) (P30411 whole entry): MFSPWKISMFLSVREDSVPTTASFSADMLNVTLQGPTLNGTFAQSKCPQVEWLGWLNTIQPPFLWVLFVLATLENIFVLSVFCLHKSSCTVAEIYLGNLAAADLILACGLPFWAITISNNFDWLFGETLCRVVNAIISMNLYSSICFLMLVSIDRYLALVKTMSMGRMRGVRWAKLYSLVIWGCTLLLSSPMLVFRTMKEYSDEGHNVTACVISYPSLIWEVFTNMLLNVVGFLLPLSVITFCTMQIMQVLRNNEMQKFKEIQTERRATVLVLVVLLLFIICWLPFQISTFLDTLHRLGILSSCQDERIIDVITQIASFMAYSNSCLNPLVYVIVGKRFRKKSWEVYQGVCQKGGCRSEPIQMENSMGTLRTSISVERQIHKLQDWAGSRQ

## CCCCN(CCCC)C(=O)CN1[C@H](c2cc(OC)c3c(c2)OCO3)C[C@@H](C(=O)O)[C@@H]1CC(C)(C)CCC
[1]
  inhibition: < 10%
Homo sapiens [2]
  inhibition: < 10%
[3]
  inhibition: < 10%
[4]
  inhibition: < 10%
Homo sapiens [5]
  inhibition: < 10%
Rattus norvegicus
  inhibition: < 10%
Endothelin-1 receptor
  IC50: 0.00303 µM
[6]
  Kb: 26.9 µM
[7]
  half-life: 3.3 h
[8]
  bioavailability: 18.1%

From ChEMBL document CHEMBL5678795 (Eur J Pharmacol, 1999)
